Values after ≈ are worked out from the molar mass of the structure shown.

Common to all, as to assay type: functional
For test [1], the system named is Pseudomonas aeruginosa. Kind of test: Antimicrobial activity against Pseudomonas aeruginosa isolate 22843 expressing VIM-2 beta lactamase gene by Etest.
Test [2] deals with Pseudomonas aeruginosa. Put plainly: Antimicrobial activity against Pseudomonas aeruginosa isolate 27135 expressing VIM-2 beta lactamase gene by Etest.
Test [3] deals with Pseudomonas aeruginosa. Put plainly: Antimicrobial activity against Pseudomonas aeruginosa isolate 26285 expressing IMP-13 beta lactamase gene by Etest.
Test [4] deals with Pseudomonas aeruginosa. Put plainly: Antimicrobial activity against Pseudomonas aeruginosa isolate M136074 expressing IMP-22 beta lactamase gene by Etest.
For test [5], the system named is Pseudomonas aeruginosa. Kind of test: Antimicrobial activity against Pseudomonas aeruginosa isolate M136074 expressing IMP-22 beta lactamase gene by Etest in presence of Tazobactam.
Test [6] relates to Pseudomonas aeruginosa. Put plainly: Antimicrobial activity against Pseudomonas aeruginosa isolate 27135 expressing VIM-2 beta lactamase gene by Etest in presence of Tazobactam.
The subject of test [7] is Pseudomonas aeruginosa. Put plainly: Antimicrobial activity against Pseudomonas aeruginosa isolate 22843 expressing VIM-2 beta lactamase gene by Etest in presence of Tazobactam.
Test [8] has as its system Pseudomonas aeruginosa. Kind of test: Antimicrobial activity against Pseudomonas aeruginosa isolate 26285 expressing IMP-13 beta lactamase gene by Etest in presence of Tazobactam.
Test [9] has as its system Pseudomonas aeruginosa. Put plainly: Antimicrobial activity against Pseudomonas aeruginosa isolate 22843 expressing VIM-2 beta lactamase gene by Etest in presence of clavulanate.
The subject of test [10] is Pseudomonas aeruginosa. Kind of test: Antimicrobial activity against Pseudomonas aeruginosa isolate 27135 expressing VIM-2 beta lactamase gene by Etest in presence of clavulanate.
The test system of test [11] is Pseudomonas aeruginosa. Kind of test: Antimicrobial activity against Pseudomonas aeruginosa isolate 26285 expressing IMP-13 beta lactamase gene by Etest in presence of clavulanate.
Test [12] has as its system Pseudomonas aeruginosa. Put plainly: Antimicrobial activity against Pseudomonas aeruginosa isolate M136074 expressing IMP-22 beta lactamase gene by Etest in presence of clavulanate.

In the case of `NCC[C@H](O)C(=O)N[C@@H]1C[C@H](N)[C@@H](O[C@H]2O[C@H](CN)[C@@H](O)[C@H](O)[C@H]2O)[C@H](O)[C@H]1O[C@H]1O[C@H](CO)[C@@H](O)[C@H](N)[C@H]1O` [AMIKACIN], the MIC in the test on Pseudomonas aeruginosa [1] was more than 256 µg/mL; against Pseudomonas aeruginosa [2] it was more than 256 µg/mL; with Pseudomonas aeruginosa [3] it was 24 µg/mL (≈ 41 µM); against Pseudomonas aeruginosa [4] it was 6 µg/mL (≈ 10.2 µM).
As to `C[C@H]1[C@H](NC(=O)/C(=N\OC(C)(C)C(=O)O)c2csc(N)n2)C(=O)N1S(=O)(=O)O` [AZTREONAM], the MIC with Pseudomonas aeruginosa [1] amounted to 12 µg/mL (≈ 27.6 µM); against Pseudomonas aeruginosa [2], 12 µg/mL (≈ 27.6 µM); in the test with Pseudomonas aeruginosa [3], 12 µg/mL (≈ 27.6 µM); with Pseudomonas aeruginosa [4] it was 4 µg/mL (≈ 9.19 µM).
For the compound `CO/N=C(\C(=O)N[C@@H]1C(=O)N2C(C(=O)[O-])=C(C[N+]3(C)CCCC3)CS[C@H]12)c1csc(N)n1` [CEFEPIME], the MIC in the test on Pseudomonas aeruginosa [2] is 24 µg/mL (≈ 49.9 µM); against Pseudomonas aeruginosa [3], 128 µg/mL (≈ 266 µM); with Pseudomonas aeruginosa [4], 128 µg/mL (≈ 266 µM).
Consider `CO/N=C(\C(=O)N[C@@H]1C(=O)N2C(C(=O)O)=C(COC(C)=O)CS[C@H]12)c1csc(N)n1` [CEFOTAXIME], for which the MIC against Pseudomonas aeruginosa [1], in the test with Pseudomonas aeruginosa [2], in the test with Pseudomonas aeruginosa [3] and in the test with Pseudomonas aeruginosa [4] was more than 256 µg/mL throughout.
As for `CC(C)(O/N=C(\C(=O)N[C@@H]1C(=O)N2C(C(=O)[O-])=C(C[n+]3ccccc3)CS[C@H]12)c1csc(N)n1)C(=O)O` [CEFTAZIDIME], the MIC is 12 µg/mL (≈ 22 µM) against Pseudomonas aeruginosa [1], 12 µg/mL (≈ 22 µM) against Pseudomonas aeruginosa [2], more than 256 µg/mL in the test with Pseudomonas aeruginosa [3] and more than 256 µg/mL with Pseudomonas aeruginosa [4].
As for `O=C(O)c1cn(C2CC2)c2cc(N3CCNCC3)c(F)cc2c1=O` [CIPROFLOXACIN], the MIC in the test with Pseudomonas aeruginosa [1] was more than 32 µg/mL; in the test with Pseudomonas aeruginosa [2] it was more than 32 µg/mL; against Pseudomonas aeruginosa [3], more than 32 µg/mL; against Pseudomonas aeruginosa [4], 32 µg/mL (≈ 96.6 µM).
Take `C[C@@H](O)[C@H]1C(=O)N2C(C(=O)O)=C(SCCNC=N)C[C@H]12` [IMIPENEM ANHYDROUS]: the MIC in the test on Pseudomonas aeruginosa [1] was more than 32 µg/mL; in the test on Pseudomonas aeruginosa [2], more than 32 µg/mL; with Pseudomonas aeruginosa [3] it was more than 32 µg/mL; against Pseudomonas aeruginosa [4] it was 12 µg/mL (≈ 40.1 µM).
Turning to `C[C@@H](O)[C@H]1C(=O)N2C(C(=O)O)=C(S[C@@H]3CN[C@H](C(=O)N(C)C)C3)[C@H](C)[C@H]12` [MEROPENEM], the MIC was more than 32 µg/mL in the test on Pseudomonas aeruginosa [1], more than 32 µg/mL against Pseudomonas aeruginosa [2], more than 32 µg/mL against Pseudomonas aeruginosa [3] and 24 µg/mL (≈ 62.6 µM) in the test with Pseudomonas aeruginosa [4].
For the compound `CCN1CCN(C(=O)N[C@@H](C(=O)N[C@@H]2C(=O)N3[C@@H]2SC(C)(C)[C@@H]3C(=O)O)c2ccccc2)C(=O)C1=O` [PIPERACILLIN], the MIC with Pseudomonas aeruginosa [5] was 8 µg/mL; in the test on Pseudomonas aeruginosa [1], 32 µg/mL (≈ 61.8 µM); with Pseudomonas aeruginosa [2], 32 µg/mL (≈ 61.8 µM); in the test with Pseudomonas aeruginosa [6], 32 µg/mL; in the test with Pseudomonas aeruginosa [7], 32 µg/mL; with Pseudomonas aeruginosa [8], 16 µg/mL. Also, the MIC against Pseudomonas aeruginosa [3] amounted to 16 µg/mL (≈ 30.9 µM); in the test with Pseudomonas aeruginosa [4], 12 µg/mL (≈ 23.2 µM).
`CC1(C)S[C@@H]2[C@H](NC(=O)[C@H](C(=O)O)c3ccsc3)C(=O)N2[C@H]1C(=O)O` [TICARCILLIN]: the MIC in the test with Pseudomonas aeruginosa [1], with Pseudomonas aeruginosa [9], in the test with Pseudomonas aeruginosa [2], with Pseudomonas aeruginosa [10], with Pseudomonas aeruginosa [3] and against Pseudomonas aeruginosa [4] was more than 256 µg/mL each time. Moreover, the MIC with Pseudomonas aeruginosa [11] and in the test on Pseudomonas aeruginosa [12] was more than 256 µg/mL in each case.
As for `NC[C@H]1O[C@H](O[C@H]2[C@H](O)[C@@H](O[C@H]3O[C@H](CO)[C@@H](O)[C@H](N)[C@H]3O)[C@H](N)C[C@@H]2N)[C@H](N)C[C@@H]1O` [TOBRAMYCIN], the MIC in the test with Pseudomonas aeruginosa [1] was more than 256 µg/mL; with Pseudomonas aeruginosa [2], more than 256 µg/mL; in the test with Pseudomonas aeruginosa [3], 128 µg/mL (≈ 274 µM); against Pseudomonas aeruginosa [4], 2 µg/mL (≈ 4.28 µM).
Regarding COLISTIN, the MIC in the test on Pseudomonas aeruginosa [1] is 4 µg/mL; against Pseudomonas aeruginosa [2], 4 µg/mL; in the test on Pseudomonas aeruginosa [3] it was 6 µg/mL; against Pseudomonas aeruginosa [4] it was 6 µg/mL.
GENTAMICIN: the MIC with Pseudomonas aeruginosa [1] is 8 µg/mL; against Pseudomonas aeruginosa [2] it was 8 µg/mL; with Pseudomonas aeruginosa [3] it was more than 256 µg/mL; in the test with Pseudomonas aeruginosa [4], 4 µg/mL.

A word on the MIC: it is the smallest concentration in the dilution series that meets the test's criterion for growth inhibition.

These data come from ChEMBL document CHEMBL1649164, “First organisms with acquired metallo-beta-lactamases (IMP-13, IMP-22, and VIM-2) reported in Austria” (2009).
